In ChEMBL document CHEMBL5465560, “Selectivity Literature for EUbOPEN Chemogenomic Library” (2024):
Values belong to the compound of their own block, whether it stands above or below them.

Key:
[1] = target: T1, Ephrin type-B receptor 3 (Homo sapiens) (UniProt P54753); assay: Selectivity interaction (SelectScreen profiling (Invitrogen)) EUB0000607a EPHB3; settings: at 2 µM
T1 sequence (whole entry): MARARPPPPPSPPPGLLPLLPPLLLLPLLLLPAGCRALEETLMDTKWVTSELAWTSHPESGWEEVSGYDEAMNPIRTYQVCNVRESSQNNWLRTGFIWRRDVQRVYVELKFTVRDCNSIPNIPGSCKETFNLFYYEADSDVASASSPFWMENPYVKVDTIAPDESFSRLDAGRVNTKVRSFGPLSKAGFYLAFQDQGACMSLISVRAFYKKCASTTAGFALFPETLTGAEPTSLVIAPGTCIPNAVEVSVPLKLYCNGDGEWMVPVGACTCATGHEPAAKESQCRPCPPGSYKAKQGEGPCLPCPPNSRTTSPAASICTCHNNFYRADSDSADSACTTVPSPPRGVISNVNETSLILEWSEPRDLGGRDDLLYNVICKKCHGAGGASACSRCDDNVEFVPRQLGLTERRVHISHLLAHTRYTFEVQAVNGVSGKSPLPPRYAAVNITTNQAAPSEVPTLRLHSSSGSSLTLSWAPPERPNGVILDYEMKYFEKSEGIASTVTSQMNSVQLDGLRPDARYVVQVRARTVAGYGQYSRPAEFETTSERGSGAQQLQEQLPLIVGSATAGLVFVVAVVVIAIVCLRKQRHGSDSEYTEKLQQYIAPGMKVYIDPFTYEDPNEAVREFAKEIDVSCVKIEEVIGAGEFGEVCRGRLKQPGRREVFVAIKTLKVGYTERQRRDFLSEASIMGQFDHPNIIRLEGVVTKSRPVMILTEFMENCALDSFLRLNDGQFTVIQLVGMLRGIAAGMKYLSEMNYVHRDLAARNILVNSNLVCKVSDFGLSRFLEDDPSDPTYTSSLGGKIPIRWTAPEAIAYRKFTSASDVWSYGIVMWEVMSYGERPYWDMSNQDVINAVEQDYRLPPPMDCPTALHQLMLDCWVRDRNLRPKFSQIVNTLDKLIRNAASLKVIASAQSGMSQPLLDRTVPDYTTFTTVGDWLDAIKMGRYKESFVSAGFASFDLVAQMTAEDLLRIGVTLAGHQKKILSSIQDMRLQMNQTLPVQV

[2] = target: T2, Mitogen-activated protein kinase kinase kinase 5 (Homo sapiens) (UniProt Q99683); assay: Selectivity interaction (ActivX KiNativ screen (kinase selectivity in THP-1 cell lysates)) EUB0000639a MAP3K5; format: subcellular; settings: lysate, at 0.01 µM
T2 sequence (whole entry): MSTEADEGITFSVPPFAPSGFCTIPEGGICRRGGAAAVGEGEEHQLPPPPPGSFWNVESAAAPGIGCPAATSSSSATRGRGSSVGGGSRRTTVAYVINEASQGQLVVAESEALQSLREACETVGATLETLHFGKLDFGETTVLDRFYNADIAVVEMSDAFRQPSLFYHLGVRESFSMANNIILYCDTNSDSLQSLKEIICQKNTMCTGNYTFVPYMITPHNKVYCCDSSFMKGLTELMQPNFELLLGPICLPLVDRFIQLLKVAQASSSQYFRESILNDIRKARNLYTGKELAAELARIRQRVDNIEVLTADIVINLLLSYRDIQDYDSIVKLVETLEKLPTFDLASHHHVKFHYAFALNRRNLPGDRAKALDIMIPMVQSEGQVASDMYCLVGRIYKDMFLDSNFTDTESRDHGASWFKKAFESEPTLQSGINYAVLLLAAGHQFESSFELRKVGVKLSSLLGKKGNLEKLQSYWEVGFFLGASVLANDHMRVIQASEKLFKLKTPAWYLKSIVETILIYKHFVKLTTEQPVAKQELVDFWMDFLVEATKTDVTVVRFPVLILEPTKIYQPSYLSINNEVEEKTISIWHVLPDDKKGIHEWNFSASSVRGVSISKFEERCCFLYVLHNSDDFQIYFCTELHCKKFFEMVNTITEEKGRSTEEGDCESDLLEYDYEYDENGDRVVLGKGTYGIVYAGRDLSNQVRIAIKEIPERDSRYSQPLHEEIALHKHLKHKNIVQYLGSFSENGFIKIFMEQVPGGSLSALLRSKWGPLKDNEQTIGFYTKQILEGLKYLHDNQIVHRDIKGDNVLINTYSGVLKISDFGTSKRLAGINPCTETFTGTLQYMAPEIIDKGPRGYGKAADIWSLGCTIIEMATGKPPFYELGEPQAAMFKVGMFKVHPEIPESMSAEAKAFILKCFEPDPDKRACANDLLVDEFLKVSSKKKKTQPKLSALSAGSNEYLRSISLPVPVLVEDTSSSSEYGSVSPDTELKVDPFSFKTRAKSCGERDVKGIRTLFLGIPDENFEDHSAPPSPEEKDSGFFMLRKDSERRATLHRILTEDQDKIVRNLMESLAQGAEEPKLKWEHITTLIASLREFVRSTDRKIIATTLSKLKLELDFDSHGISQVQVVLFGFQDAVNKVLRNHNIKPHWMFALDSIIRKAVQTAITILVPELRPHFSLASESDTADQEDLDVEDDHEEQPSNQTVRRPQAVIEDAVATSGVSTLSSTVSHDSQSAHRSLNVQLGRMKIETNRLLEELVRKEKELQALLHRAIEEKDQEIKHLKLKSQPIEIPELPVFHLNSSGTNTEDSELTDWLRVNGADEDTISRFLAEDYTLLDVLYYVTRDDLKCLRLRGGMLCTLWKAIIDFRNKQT

[3] = target: Serine/threonine-protein kinase SIK2 (Homo sapiens) (UniProt Q9H0K1); assay: Selectivity interaction (ProQinase) EUB0000171b SIK2
Chain of Serine/threonine-protein kinase SIK2 (Homo sapiens) (Q9H0K1 whole entry, looked up): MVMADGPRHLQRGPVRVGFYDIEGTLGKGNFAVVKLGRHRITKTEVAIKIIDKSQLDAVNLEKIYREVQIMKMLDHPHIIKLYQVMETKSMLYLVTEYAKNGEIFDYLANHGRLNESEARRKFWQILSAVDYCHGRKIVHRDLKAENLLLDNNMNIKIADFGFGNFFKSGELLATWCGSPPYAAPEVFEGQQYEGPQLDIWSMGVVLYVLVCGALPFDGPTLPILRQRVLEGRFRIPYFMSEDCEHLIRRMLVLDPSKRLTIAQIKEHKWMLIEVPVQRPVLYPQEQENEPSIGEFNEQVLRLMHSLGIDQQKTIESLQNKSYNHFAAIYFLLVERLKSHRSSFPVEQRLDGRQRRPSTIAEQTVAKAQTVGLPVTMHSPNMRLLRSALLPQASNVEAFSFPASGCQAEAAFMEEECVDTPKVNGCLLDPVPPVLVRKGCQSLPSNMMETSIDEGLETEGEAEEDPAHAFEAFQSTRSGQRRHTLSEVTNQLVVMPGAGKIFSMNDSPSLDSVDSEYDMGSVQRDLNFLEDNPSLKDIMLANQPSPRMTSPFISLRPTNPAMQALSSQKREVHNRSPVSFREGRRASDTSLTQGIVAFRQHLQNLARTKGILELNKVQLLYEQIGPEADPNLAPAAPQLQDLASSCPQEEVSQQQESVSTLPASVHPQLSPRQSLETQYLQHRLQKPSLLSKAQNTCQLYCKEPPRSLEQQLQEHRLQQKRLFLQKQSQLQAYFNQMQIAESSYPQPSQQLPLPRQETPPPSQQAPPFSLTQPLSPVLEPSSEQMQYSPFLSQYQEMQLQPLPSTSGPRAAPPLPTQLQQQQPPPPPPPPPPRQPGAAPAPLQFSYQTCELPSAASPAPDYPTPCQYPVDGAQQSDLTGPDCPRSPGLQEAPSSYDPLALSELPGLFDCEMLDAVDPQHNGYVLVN

[4] = target: STE20-like serine/threonine-protein kinase (Homo sapiens, UniProt Q9H2G2); assay: Selectivity interaction (Kinase panel (DSF assay)) EUB0001559a SLK
Chain of STE20-like serine/threonine-protein kinase (Q9H2G2 whole entry, looked up): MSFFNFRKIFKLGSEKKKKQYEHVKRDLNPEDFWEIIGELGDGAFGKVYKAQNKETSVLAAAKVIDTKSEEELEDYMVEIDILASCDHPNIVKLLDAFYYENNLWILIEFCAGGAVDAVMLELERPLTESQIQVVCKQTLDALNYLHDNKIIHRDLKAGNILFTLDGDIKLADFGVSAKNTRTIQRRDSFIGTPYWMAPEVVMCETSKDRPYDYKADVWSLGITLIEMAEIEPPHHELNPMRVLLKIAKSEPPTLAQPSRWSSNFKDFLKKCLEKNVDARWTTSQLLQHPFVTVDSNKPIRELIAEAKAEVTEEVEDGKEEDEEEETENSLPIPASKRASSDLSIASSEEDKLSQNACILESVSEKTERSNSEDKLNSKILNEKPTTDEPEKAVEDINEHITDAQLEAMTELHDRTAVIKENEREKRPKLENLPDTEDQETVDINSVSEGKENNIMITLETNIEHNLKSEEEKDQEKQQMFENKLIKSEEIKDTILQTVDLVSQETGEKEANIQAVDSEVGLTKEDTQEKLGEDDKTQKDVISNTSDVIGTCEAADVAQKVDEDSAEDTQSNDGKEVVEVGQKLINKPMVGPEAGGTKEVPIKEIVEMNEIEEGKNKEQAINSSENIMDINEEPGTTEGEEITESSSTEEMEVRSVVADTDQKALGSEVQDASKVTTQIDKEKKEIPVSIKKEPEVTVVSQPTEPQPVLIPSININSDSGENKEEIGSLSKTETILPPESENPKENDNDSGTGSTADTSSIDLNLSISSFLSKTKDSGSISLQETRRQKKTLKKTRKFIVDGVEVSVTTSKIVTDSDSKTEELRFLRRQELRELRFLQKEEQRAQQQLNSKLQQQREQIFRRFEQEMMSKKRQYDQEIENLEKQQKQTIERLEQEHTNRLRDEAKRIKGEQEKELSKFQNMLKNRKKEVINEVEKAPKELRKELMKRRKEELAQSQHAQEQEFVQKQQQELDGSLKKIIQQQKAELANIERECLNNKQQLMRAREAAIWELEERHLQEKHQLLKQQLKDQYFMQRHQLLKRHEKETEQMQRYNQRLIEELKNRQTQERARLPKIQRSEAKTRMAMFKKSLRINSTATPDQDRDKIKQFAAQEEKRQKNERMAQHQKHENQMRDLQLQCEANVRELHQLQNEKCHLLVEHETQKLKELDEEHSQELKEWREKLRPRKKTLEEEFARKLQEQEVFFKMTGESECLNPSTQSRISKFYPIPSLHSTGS

[5] = target: Dual specificity mitogen-activated protein kinase kinase 2 (Homo sapiens) (UniProt P36507); assay: Selectivity interaction (Ambit KINOMEscan and KiNATiv profiling in Jurkat cells) EUB0000090b MAP2K2; format: cell-based; settings: at 1 µM
Chain of Dual specificity mitogen-activated protein kinase kinase 2 (Homo sapiens) (P36507 whole entry): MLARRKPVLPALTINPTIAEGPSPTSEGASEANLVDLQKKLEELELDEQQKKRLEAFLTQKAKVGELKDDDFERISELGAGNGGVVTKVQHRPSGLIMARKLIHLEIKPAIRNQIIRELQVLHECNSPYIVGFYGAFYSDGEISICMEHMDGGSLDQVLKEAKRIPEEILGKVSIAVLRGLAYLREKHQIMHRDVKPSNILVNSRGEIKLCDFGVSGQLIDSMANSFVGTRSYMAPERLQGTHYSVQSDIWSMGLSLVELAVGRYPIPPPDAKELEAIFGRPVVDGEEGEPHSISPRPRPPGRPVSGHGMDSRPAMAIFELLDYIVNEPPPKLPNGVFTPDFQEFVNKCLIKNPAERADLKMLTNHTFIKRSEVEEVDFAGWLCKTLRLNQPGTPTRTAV

[6] = target: Serine/threonine-protein kinase PLK2 (Homo sapiens, UniProt Q9NYY3); assay: Selectivity interaction (KinomeScan (DiscoverX)) EUB0000092b PLK2; settings: at 10 µM
Chain of Serine/threonine-protein kinase PLK2 (Q9NYY3 whole entry, looked up): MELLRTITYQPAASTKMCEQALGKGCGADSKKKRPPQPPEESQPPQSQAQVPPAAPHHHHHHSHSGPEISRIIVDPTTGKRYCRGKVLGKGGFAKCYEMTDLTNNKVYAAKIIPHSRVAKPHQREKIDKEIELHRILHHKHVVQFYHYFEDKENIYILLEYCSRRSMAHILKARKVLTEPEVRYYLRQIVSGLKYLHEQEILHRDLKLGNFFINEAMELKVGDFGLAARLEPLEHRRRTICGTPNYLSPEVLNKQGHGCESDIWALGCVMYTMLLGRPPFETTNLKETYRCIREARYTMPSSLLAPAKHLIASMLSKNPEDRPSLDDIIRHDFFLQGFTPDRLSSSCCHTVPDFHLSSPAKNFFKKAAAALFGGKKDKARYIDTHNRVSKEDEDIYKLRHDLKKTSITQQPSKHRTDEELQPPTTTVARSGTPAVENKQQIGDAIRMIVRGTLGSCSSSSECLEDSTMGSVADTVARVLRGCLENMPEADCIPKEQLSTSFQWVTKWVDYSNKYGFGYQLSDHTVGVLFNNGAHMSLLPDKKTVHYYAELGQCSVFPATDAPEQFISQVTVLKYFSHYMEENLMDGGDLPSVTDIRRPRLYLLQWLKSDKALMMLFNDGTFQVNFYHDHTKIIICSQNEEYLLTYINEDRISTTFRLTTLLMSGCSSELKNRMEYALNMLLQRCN

[7] = target: Atypical kinase COQ8A, mitochondrial (Homo sapiens, UniProt Q8NI60); settings: at 10 µM
Chain of Atypical kinase COQ8A, mitochondrial (Q8NI60 163-647 limits assumed): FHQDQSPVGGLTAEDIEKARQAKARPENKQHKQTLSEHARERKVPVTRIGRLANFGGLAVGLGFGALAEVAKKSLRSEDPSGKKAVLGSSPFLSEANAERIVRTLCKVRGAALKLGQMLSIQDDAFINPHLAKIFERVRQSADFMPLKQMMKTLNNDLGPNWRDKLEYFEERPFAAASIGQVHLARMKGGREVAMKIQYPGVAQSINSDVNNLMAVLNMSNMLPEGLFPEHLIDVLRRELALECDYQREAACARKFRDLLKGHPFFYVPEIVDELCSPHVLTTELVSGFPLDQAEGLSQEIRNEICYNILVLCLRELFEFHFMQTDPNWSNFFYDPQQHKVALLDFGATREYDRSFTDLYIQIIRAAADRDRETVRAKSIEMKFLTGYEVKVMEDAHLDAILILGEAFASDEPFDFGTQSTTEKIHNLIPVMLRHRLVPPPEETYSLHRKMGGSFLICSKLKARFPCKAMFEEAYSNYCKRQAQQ

SMILES: CNC(=O)Nc1ccc(-c2nc(N3CC4CCC(C3)O4)c3cnn(C4CCC5(CC4)OCCO5)c3n2)cc1
% of inhibition [1]: 3%

% of inhibition [2]: -5.8%
SMILES: CC[C@@H]1[C@H](F)C(=O)N[C@@H]1COc1nccc2cc(C(N)=O)c(OC)cc12 [ZIMLOVISERTIB]

% of control ([3]; at 1 µM): 108%
% of control ([3]; at 5 µM): 90%
SMILES: C=CC(=O)Nc1cccc(C(=O)Nc2ccc(Nc3cc(-c4[nH]c(SC)nc4C)ccn3)cc2)c1

dTM [4]: 1 K
SMILES: CN(C(=O)c1cnn2cccnc12)c1cc2c(cc1N1CCOCC1)C(=O)N(C[C@@H](F)C(C)(C)O)C2

SMILES: CN(C)C/C=C/C(=O)Nc1ccc(C(=O)N2CCCC(Nc3ncc(Cl)c(-c4c[nH]c5ccccc45)n3)C2)cc1 (stereo not drawn)
% of control [5]: 93%

SMILES: CCC(=O)N1CCN(c2ccc(-n3c(=O)ccc4cnc5ccc(-c6cnc7ccccc7c6)cc5c43)cc2C(F)(F)F)CC1
% of control [6]: 85%

SMILES: Cc1cc([C@@H](C)Nc2ccccc2C(=O)O)c2nc(N3CCOCC3)cc(=O)n2c1 [AZD-6482]
% of control [7]: 86%
